Test results from US20220226270A1, “VERY-LONG-CHAIN POLYUNSATURATED FATTY ACIDS, ELOVANOID HYDROXYLATED DERIVATIVES, AND METHODS OF USE” (Board of Supervisors of Louisiana State University and …, priority 2019, published 2022).

Tests used:
[1] = system: hippocampal mixed neuronal culture; experiment: Oxygen glucose deprivation (OGD) in hippocampal mixed neuronal culture; type: cell-based, rat; conditions: 500 nM, DIV 12, 90 min OGD (FIG. 18G)
From the text: (§1) Primary cultures of cortical neurons: Primary cultures of cortical and hippocampal neurons were harvested from 18-day-old embryos (E18) taken from timed-pregnant, two-month-old Sprague-Dawley (SD) rats (Charles River Lab., Wilmington, Mass.). Briefly, timed-pregnant SD rats were euthanized and embryos were collected in sterile conditions. Embryonic brains were dissected out by forceps on ice and placed in a petri dish containing ice-cold Hank's Balanced Salt Solution (HBSS) (GIBCO). Meninges were removed under a dissecting microscope and cortical tissues were chopped into small pieces with micro-spring scissors. These tissues were transferred to 15 ml tubes containing trypsin-EDTA (0.025% in HBSS) and DNase I. The tubes were incubated in 37° C. chamber for 15 mins and were agitated every 5 mins. After stopping the trypsinization with 5 ml 10% FBS, these tissues were triturated 15 times with a fire polished Pasteur pipet. Cell clumps were left to settle for 2 mins and the supernatant was transferred to a 15 ml Eppendorf tube. The supernatant was filtered through a 70 μm pore-sized filter (Corning cell strainer) and centrifuged for 5 mins at 1000 rpm. The cells were then resuspended in Neurobasal medium (GIBCO) containing 2% B27 (GIBCO) and 2% N2 (GIBCO) supplements, along with 0.5 mM glutamine, 50 U/ml penicillin/streptomycin.
(§2) Oxygen glucose deprivation (OGD), NMDA excitotoxicity or uncompensated oxidative stress (UOS) exposure: An in vitro oxygen glucose deprivation (OGD) model was established. Primary cortical neurons were cultured from SD rat embryos. On day in vitro (DIV) 12, cells were washed with phosphate-buffered saline and incubated in glucose-free Neurobasal medium (GIBCO) for 30 mins. The cells were then placed in a modular incubator chamber and incubated in an anaerobic chamber (95% N2, 5% CO2) at 37° C. for 90 mins for OGD.
After 90 mins of OGD exposure, cells were returned to the original medium (Neurobasal medium (GIBCO) containing 2% B27 (GIBCO) and 2% N2 (GIBCO) supplements, along with 0.5 mM glutamine, 50 U/ml penicillin/streptomycin) and placed in a normoxic chamber (37° C., 5% CO2) for 2 h. Then the medium was changed with medium containing either ELV-N32 or ELV-N34 [500 nM] and maintained in a normoxic chamber (37° C., 5% CO2) for 12 h, after which cells were sampled and assayed for cell viability using different methods as previously described (25-28). […]
One 4×4 tile mosaic was acquired from the center of each well using a Zeiss 510 Meta laser confocal microscope and LSM 510 Meta software. […] An Otsu auto threshold was applied to each image of Hoechst-stained nuclei, and the area of each detected object was recorded. […]

[2] = system: cerebral cortical mixed neuronal cells; experiment: NMDA excitotoxicity in cerebral cortical mixed neuronal cultures; type: cell-based, rat; conditions: for synergy with NPD1 in neuroprotection against NMDA excitotoxicity: ELV 200 nM + NPD1 100 nM, NMDA 100 μM, 12 h (FIG. 16A); for NMDA dose-dependent increase of apoptotic nuclei: NMDA 25, 50 or 100 μM; for neuroprotection on addition of MK801 and NPD1 together, versus ELV alone: NMDA excitotoxicity; for frequency distribution of pyknotic vs non-pyknotic nuclei (nuclear size peak) after NMDA: 500 nM, NMDA 100 μM 12 h, DIV 12, Hoechst
From the text: as §1
(§3) Cells were counted using a Neubauer hemocytometer. 1×10^6 cells were seeded on poly-D-lysine-coated 12 well cell culture dish (CORNING) and cultured in incubator (37° C., 5% CO2). Culture medium was first replaced after 24 h, then half of the medium was replaced with fresh medium every three days. As a result, approximately, 90% purity of neurons was obtained as determined by class-III-β tubulin, GFAP and Hoechst 33258 staining. Cells were maintained in culture for about 2 weeks until they were exposed to uncompensated oxidative stress, OGD, or NMDA excitotoxicity.
(§4) After 90 mins of OGD exposure, cells were returned to the original medium (Neurobasal medium (GIBCO) containing 2% B27 (GIBCO) and 2% N2 (GIBCO) supplements, along with 0.5 mM glutamine, 50 U/ml penicillin/streptomycin) and placed in a normoxic chamber (37° C., 5% CO2) for 2 h. Then the medium was changed with medium containing either ELV-N32 or ELV-N34 [500 nM] and maintained in a normoxic chamber (37° C., 5% CO2) for 12 h, after which cells were sampled and assayed for cell viability using different methods as previously described (25-28). Cerebral cortical mixed neuronal cells or hippocampal cells in culture were exposed to either NMDA or uncompensated oxidative stress (UOS) for 12 h by addition of either NMDA (25 μM, 50 μM, or 100 μM) concentration or by the addition of TNFα (10 ng/mL) and H2O2 (50 μM, 100 μM, or 200 μM). Cell viability and neuroprotection in the presence of ELV-N32, ELV-N34, 32:6, or 34:6 were assayed after 12 h.
(§5) Hoechst staining and unbiased image analysis: Cells were washed with 1× Dulbecco's Phosphate Buffered Saline (DPBS) containing no calcium or magnesium (GIBCO) and fixed for 10 mins using ice-cold 4% paraformaldehyde (PFA) followed by 15 mins incubation in 100% methanol. Cells were washed with 1× Phosphate Buffered Saline (PBS) pH 7.4 (GIBCO) and incubated in PBS containing 20 μM Hoechst 33258 (Molecular Probes) for 20 mins. Cells were then washed 3 times with 1× PBS and stored in 1× PBS at 4° C. until they were imaged for microscopy.
(§6) One 4×4 tile mosaic was acquired from the center of each well using a Zeiss 510 Meta laser confocal microscope and LSM 510 Meta software. Images were imported into image analysis software ImageJ (National Institutes of Health, Bethesda, Md.) and batch processed using custom macros. An Otsu auto threshold was applied to each image of Hoechst-stained nuclei, and the area of each detected object was recorded. Objects with areas <10 μm^2 were excluded from analysis. To estimate percentage non-pyknotic nuclei, a size cutoff value was chosen above which objects were assumed to be non-pyknotic. […]

ARPE-19 cells = experiment: UOS-induced apoptosis in ARPE-19 cells (Hoechst-positive pyknotic cells); type: cell-based, human; conditions: for protection against UOS: free fatty acids (FIGS. 7A and 7B); for UOS-induced apoptosis: 200 nM (FIG. 10C); for UOS-induced apoptotic cell death, concentration-dependent: 50-500 nM (FIG. 10G); for concentration of highest inhibition of UOS-induced apoptosis / concentration of lowest inhibition of UOS-induced apoptosis: tested 50-500 nM
Description: ARPE19 cells at 75-80% confluence (72 h growth in DMEM/F12+10% FBS) in 6-well plates were serum-starved for 8 h before exposure. The serum-starved cells were treated with TNF-α (Sigma-Aldrich, St. Louis, Mo.) (10 ng/ml) and H2O2 (600 μM) to induce oxidative stress and challenged with increasing concentrations (50-500 nM) of VLC-PUFA (C32:6n3 and C34:6n3) simultaneously with oxidative stress for 16 h (apoptosis) and 6 h (Western-blot) before detection of apoptosis and harvesting for protein analysis. In some experiments, DHA at a concentration of 100 nM and 15-LOX-1 inhibitor PD146176 at a concentration of 1 μM was added to treat the RPE cells under stress. Cell extracts were made and protein concentrations adjusted by Bio-Rad (Hercules, Calif.) protein reagent and used for Western blot analysis.
To assess cell death, hRPE and ARPE-19 cells were fixed with methanol for 15 mins, washed with 1× PBS then loaded with 2 μM Hoechst dissolved in a Locke's solution (Promega) and incubated for another 15 mins before imaging. Cells were then viewed by using a Zeiss LSM 510 confocal microscope under UV fluorescence. Images were recorded and cell apoptosis was assessed by using an automated unbiased method.

[3] = system: cerebral cortical mixed neuronal cells; experiment: Oxygen glucose deprivation (OGD) in cerebral cortical mixed neuronal cultures; type: cell-based, rat; conditions: for neuroprotection after OGD by VLC-PUFA precursor: 250 nM, added after OGD exposure; for neuroprotection compared to OGD alone (Hoechst-positive nuclei, calcein-positive cell counting or MTT): 90 mins OGD, added after 2 h of reoxygenation at 200 nM, 500 nM or 1 μM, cortical mixed or hippocampal neurons; for frequency distribution of pyknotic vs non-pyknotic nuclei (nuclear size peak) after OGD: 500 nM, DIV 12, 90 min OGD, Hoechst
From the text: as §1, §3, §2, §4
as §5, with “microscopy. […]” for “microscopy.”

[4] = system: cerebral cortical mixed neuronal cells; experiment: Uncompensated oxidative stress (TNFα plus H2O2) in cerebral cortical mixed neuronal cultures; type: cell-based, rat; conditions: for UOS dose-dependent increase of apoptotic nuclei: 200 nM (FIG. 16B); for neuroprotection against uncompensated oxidative stress: 200 nM, 12 h TNFα 10 ng/mL and H2O2 (50, 100 or 200 μM)
From the text: as §1, §3, §4, §5, §6

| Structure (SMILES) | neuroprotection after OGD (Hoechst positive nuclei counting) [1] | protection against UOS (ARPE-19 cells) | synergy with NPD1 in neuroprotection against NMDA excitotoxicity [2] | NMDA dose-dependent increase of apoptotic nuclei [2] | neuroprotection on addition of MK801 and NPD1 together, versus ELV alone [2] | neuroprotection compared to OGD alone (Hoechst-positive nuclei, calcein-positive cell counting or MTT) [3] | UOS dose-dependent increase of apoptotic nuclei [4] | neuroprotection against uncompensated oxidative stress [4] | frequency distribution of pyknotic vs non-pyknotic nuclei (nuclear size peak) after NMDA [2] | UOS-induced apoptosis (ARPE-19 cells) | UOS-induced apoptotic cell death, concentration-dependent (ARPE-19 cells) | concentration of highest inhibition of UOS-induced apoptosis (ARPE-19 cells) [nM] | concentration of lowest inhibition of UOS-induced apoptosis (ARPE-19 cells) [nM] | frequency distribution of pyknotic vs non-pyknotic nuclei (nuclear size peak) after OGD [3] | also measured |
| --- | --- | --- | --- | --- | --- | --- | --- | --- | --- | --- | --- | --- | --- | --- | --- |
| CC/C=C\C/C=C\C/C=C\C/C=C\C/C=C\C/C=C\CCCCCCCCCCCCC(=O)O [32:6n3, (14Z,17Z,20Z,23Z,26Z,29Z)-dotriaconta-14,17,20,23,26,29-hexaenoic acid] | showed neuroprotection | elicit protection |  |  |  |  |  |  |  |  |  |  |  |  | NMDA excitotoxicity (precursor, 250 nM) ([2]; 250 nM (FIG. 17 graph D)): attenuate NMDA excitotoxicity; neuroprotection after OGD by VLC-PUFA precursor [3]: provide neuroprotection |
| CC/C=C\C/C=C\C/C=C\C/C=C\C/C=C\C/C=C\CCCCCCCCCCCCCCC(=O)O [34:6n3, (16Z,19Z,22Z,25Z,28Z,31Z)-tetratriaconta-16,19,22,25,28,31-hexaenoic acid] | showed neuroprotection | elicit protection |  |  |  |  |  |  |  |  |  |  |  |  | NMDA receptor-mediated excitotoxicity (precursor, 500 nM) ([2]; 500 nM (FIG. 16H)): attenuates; neuroprotection after OGD by VLC-PUFA precursor ([3]; listed as 34:6): elicit neuroprotection |
| CC/C=C\C[C@H](O)\C=C/C=C/C=C/[C@H](O)C/C=C\C/C=C\CCCCCCCCCCCCC(=O)OC [ELV-N32-Me, methyl (14Z,17Z,20R,21E,23E,25Z,27S,29Z)-20,27-dihydroxydotriaconta-14,17,21,23,25,29-hexaenoate] |  |  | showed synergy | compensated for | improved the neuroprotection | elicited neuroprotection | counteracted | evoked neuroprotection |  |  |  |  |  |  | relative potency of combination with NPD1 ([2]; versus ELV-N32-Na and NPD1 together): more potent |
| CC/C=C\C[C@H](O)\C=C/C=C/C=C/[C@H](O)C/C=C\C/C=C\CCCCCCCCCCCCC(=O)[O-].[Na+] [ELV-N32-Na, sodium (14Z,17Z,20R,21E,23E,25Z,27S,29Z)-20,27-dihydroxydotriaconta-14,17,21,23,25,29-hexaenoate] | neuroprotection elicited |  | showed synergy | compensated for | improved the neuroprotection | elicited neuroprotection | counteracted | evoked neuroprotection | positive rightward shift | attenuation of apoptosis | attenuated | 500 | 50 | positive rightward shift | neuroprotection against uncompensated oxidative stress ([4]; listed as ELV-N32 Na): neuroprotection elicited |
| CC/C=C\C[C@H](O)\C=C/C=C/C=C/[C@H](O)C/C=C\C/C=C\CCCCCCCCCCCCCCC(=O)OC [ELV-N34-Me, methyl (16Z,19Z,22R,23E,25E,27Z,29S,31Z)-22,29-dihydroxytetratriaconta-16,19,23,25,27,31-hexaenoate] |  |  |  |  |  | elicited neuroprotection |  |  | positive rightward shift |  | attenuated | 500 | 50 | positive rightward shift |  |
| CC/C=C\C[C@H](O)\C=C/C=C/C=C/[C@H](O)C/C=C\C/C=C\CCCCCCCCCCCCCCC(=O)[O-].[Na+] [ELV-N34-Na, sodium (16Z,19Z,22R,23E,25E,27Z,29S,31Z)-22,29-dihydroxytetratriaconta-16,19,23,25,27,31-hexaenoate] | neuroprotection elicited |  |  |  |  | elicited neuroprotection |  | neuroprotection elicited |  | attenuation of apoptosis |  |  |  |  |  |
